Measurements taken from US11718612B2, “Inhibitors of receptor interacting protein kinase I for the treatment of disease” (Board of Regents, The University of Texas System, priority 2019, dated 2023).

Assays:
[1] = molecular target: RIPK1 (Homo sapiens (Human), UniProt Q13546); assay: ADP-Glo kinase assay, RIPK1 activity; format: biochemical; conditions: 5 nM RIPK1, 50 μM ATP, 6 hr reaction
Protocol: In order to measure RIPK1 activity the ADP-Glo kinase assay (Promega, Catalog #V7002) was used to measure the conversion of ATP to ADP. This enzymatic assay was performed in a 384-well white, Optiplate (Perkin Elmer, Catalog #6007299) with assay buffer consisting of 50 mM HEPES pH 7.5 (Gibco, Catalog #15630-080), 50 mM NaCl (Teknova, Catalog #S0252), 30 mM MgCl2 (Ambion, Catalog #AM9530G), 1 mM DTT (Santa Cruz Biotechnology, Catalog #sc-29089), 0.05% BSA (Sigma, Catalog #A3059-50G) and 0.02% CHAPS (Sigma, Catalog #C5070-5G). Stock solutions of the test compounds were prepared in 100% DMSO (Sigma, Catalog #D2650) and serially diluted 1:3 using 100% DMSO. Compounds were additionally diluted 1:40 in assay buffer, and 2 μL/well were transferred to the assay plate. 4 μL/well (final concentration of 5 nM) of RIPK1 protein (SignalChem, Catalog #R07-11G-05) diluted in assay buffer and added to the assay plate followed by a 10 minute preincutation at room temperature. 4 μL/well of ATP (Promega, Catalog #V7002) (final concentration of 50 μM) diluted in assay buffer were then added to the assay plate followed by a 6 hr reaction time. Final concentrations of RIPK1 and ATP refer to a 10 μL volume. Luminescence was measured using a BioTek Synergy™ NEO plate reader. IC50 values were calculated using a four-parameter logistic curve fit using Genedata Screener software.

[2] = tested on: U937 cells; assay: Human U937 cellular necroptosis assay; format: cell-based; conditions: U-937; U937 cells stimulated with 25 ng/mL human TNFalpha and 25 μM z-VAD-FMK; 22 hr; Cell Titer-Glo viability
Protocol: Human U937 Cellular Necroptosis Assay
The human monocytic cell line U937 (CRL-1593.2) may be purchased from ATCC. The cells are routinely maintained in RPMI-1640 Medium (Gibco, Catalog #11875-093) supplemented with 10% heat inactivated fetal bovine serum (Gibco, Catalog #16140-071), 100 units/mL penicillin and 100 μg/mL streptomycin (Gibco, Catalog #15140-122), in a humidified incubator (37° C., 5% CO2). For the assay, cells are resuspended in RPMI-1640 phenol red free Media (Gibco, Catalog #11835-030) supplemented with 10% fetal bovine serum (Sigma, Catalog #F2442), 100 units/mL penicillin and 100 ug/mL streptomycin. […] Stock solutions of the test compounds are prepared in 100% DMSO (Sigma, Catalog #D2650) and serially diluted 1:3 using 100% DMSO. Compounds are additionally diluted 1:40 in assay medium, and 10 μL/well was transferred to the plate. Following the compound addition, the plate is incubated at 37° C. and 5% CO2 for 22 hr. After 22 hr, viability is assessed with the addition of 20 μL of Cell Titer-Glo 2.0 (Promega, Catalog #G9243). The tissue culture plate is shaken on an orbital shaker at 300 RPM for 15 minutes at room temperature in the dark. Luminescence is measured using a PerkinElmer Envision™ plate reader. IC50 values are calculated using a four-parameter logistic curve fit using Genedata Screener software.

RIPK1, sequence (Q13546 1-327): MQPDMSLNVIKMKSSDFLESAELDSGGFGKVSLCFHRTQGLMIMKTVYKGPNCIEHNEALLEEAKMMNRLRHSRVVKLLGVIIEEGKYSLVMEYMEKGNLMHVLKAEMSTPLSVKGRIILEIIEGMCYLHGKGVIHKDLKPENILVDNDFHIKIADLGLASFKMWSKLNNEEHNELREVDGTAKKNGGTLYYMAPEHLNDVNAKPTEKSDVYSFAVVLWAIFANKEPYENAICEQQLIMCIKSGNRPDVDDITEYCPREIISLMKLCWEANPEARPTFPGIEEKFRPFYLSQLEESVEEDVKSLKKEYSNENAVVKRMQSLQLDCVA

IC50 [1] | SMILES | IC50 [2]
0.0174 µM | O=C1c2nn(Cc3ccccc3)c(Cl)c2CCN1c1cccc(Cl)c1F [Example 2, 2-Benzyl-3-chloro-6-(3-chloro-2-fluoro-phenyl)-4,5-dihydropyrazolo[3,4-c]pyridin-7-one] | 71.2 nM
0.111 µM | O=C1c2nn(Cc3cc(F)cc(F)c3)c(Cl)c2CCN1c1cccc(Cl)c1F [Example 3, 3-Chloro-6-(3-chloro-2-fluorophenyl)-2-(3,5-difluorobenzyl)-5,6-dihydro-2H-pyrazolo[3,4-c]pyridin-7(4H)-one] | 189 nM
0.11 µM | Cc1nc(C(=O)Nc2cccc(Cl)c2F)nn1Cc1cnccn1 [Example 4, N-(3-Chloro-2-fluoro-phenyl)-5-methyl-1-(pyrazin-2-ylmethyl)-1,2,4-triazole-3-carboxamide] | 1430 nM
31.2 µM | O=C(Nc1cccc(Cl)c1F)c1cc(O)n(Cc2cnccn2)n1 [Example 8, N-(3-chloro-2-fluoro-phenyl)-5-hydroxy-1-(pyrazin-2-ylmethyl)pyrazole-3-carboxamide] | –
0.245 µM | O=C(Nc1cccc(Cl)c1F)c1n[nH]c(Cc2ccccc2)n1 [Example 9, 5-benzyl-N-(3-chloro-2-fluoro-phenyl)-1H-1,2,4-triazole-3-carboxamide] | 6300 nM
0.702 µM | Cn1nc(C(=O)Nc2cccc(Cl)c2F)nc1Cc1ccccc1 [Example 10, 5-Benzyl-N-(3-chloro-2-fluoro-phenyl)-1-methyl-1,2,4-triazole-3-carboxamide] | 9220 nM
4.06 µM | Cn1cc(-c2cc(F)c(F)c(NC(=O)c3n[nH]c(Cc4ccccc4)n3)c2)cn1 [Example 11, 5-Benzyl-N-(2,3-difluoro-5-(1-methyl-1H-pyrazol-4-yl)-phenyl)-1H-1,2,4-triazole-3-carboxamide] | > 10000 nM
6.96 µM | O=C(Nc1cccc(Cl)c1F)c1nc(Cc2ccccc2)c[nH]1 [Example 14, 4-Benzyl-N-(3-chloro-2-fluoro-phenyl)-1H-imidazole-2-carboxamide] | –
3.15 µM | O=C1c2nc(Cc3ccccc3)cn2CCN1c1cccc(Cl)c1F [Example 15, 2-Benzyl-7-(3-chloro-2-fluoro-phenyl)-5,6-dihydroimidazo[1,2-a]pyrazin-8-one] | –
0.123 µM | O=C1c2nc(Cc3ccccc3)c(Cl)n2CCN1c1cccc(Cl)c1F [Example 16, 2-Benzyl-3-chloro-7-(3-chloro-2-fluoro-phenyl)-5,6-dihydroimidazo[1,2-a]pyrazin-8-one] | –
18.7 µM | O=C(Nc1cccc(Cl)c1F)c1nc(Cc2ccccc2)c(Cl)[nH]1 [Example 18, 4-Benzyl-5-chloro-N-(3-chloro-2-fluoro-phenyl)-1H-imidazole-2-carboxamide] | –
1.01 µM | O=C(Nc1cccc(Cl)c1F)c1nnc(Cc2ccccc2)o1 [Example 19, 5-Benzyl-N-(3-chloro-2-fluorophenyl)-1,3,4-oxadiazole-2-carboxamide] | > 10000 nM
0.521 µM | O=C(Nc1ccccc1F)c1n[nH]c(Cc2ccccc2)n1 [Example 20, 5-benzyl-N-(2-fluorophenyl)-1H-1,2,4-triazole-3-carboxamide] | 6230 nM
0.854 µM | O=C(Nc1cccc(Cl)c1)c1n[nH]c(Cc2ccccc2)n1 [Example 21, 5-benzyl-N-(3-chlorophenyl)-1H-1,2,4-triazole-3-carboxamide] | > 10000 nM
1.57 µM | O=C(Nc1cccc(F)c1F)c1n[nH]c(Cc2ccccc2)n1 [Example 22, 5-benzyl-N-(2,3-difluorophenyl)-1H-1,2,4-triazole-3-carboxamide] | > 10000 nM
2.25 µM | O=C(Nc1cc(F)cc(F)c1F)c1n[nH]c(Cc2ccccc2)n1 [Example 23, 5-benzyl-N-(2,3,5-trifluorophenyl)-1H-1,2,4-triazole-3-carboxamide] | > 10000 nM
3.36 µM | O=C(Nc1cc(Cl)cc(Cl)c1)c1n[nH]c(Cc2ccccc2)n1 [Example 24, 5-benzyl-N-(3,5-dichlorophenyl)-1H-1,2,4-triazole-3-carboxamide] | > 10000 nM
4.35 µM | Cn1cc(-c2cc(Cl)c(F)c(NC(=O)c3n[nH]c(Cc4ccccc4)n3)c2)cn1 [Example 25, 5-benzyl-N-(3-chloro-2-fluoro-5-(1-methyl-1H-pyrazol-4-yl)phenyl)-1H-1,2,4-triazole-3-carboxamide] | 10000 nM
9.25 µM | COc1ccc(N(C)C(=O)c2ncn(Cc3ccccc3)n2)c(F)c1Cl [Example 41, 1-benzyl-N-(3-chloro-2-fluoro-4-methoxy-phenyl)-N-methyl-1H-1,2,4-triazole-3-carboxamide] | –
0.318 µM | O=C1c2nc(Cc3ccccc3)c(Cl)n2CCN1c1cccc(Cl)c1 [Example 42, 2-benzyl-3-chloro-7-(3-chlorophenyl)-6,7-dihydroimidazo[1,2-a]pyrazin-8(5H)-one] | –
13.7 µM | O=C1c2nc(Cc3ccccc3)cn2CCN1c1cccc(Cl)c1 [Example 43, 2-benzyl-7-(3-chlorophenyl)-6,7-dihydroimidazo[1,2-a]pyrazin-8(5H)-one] | –
> 33 µM | Cn1cc(C(=O)Nc2cccc(Cl)c2F)nc1Cc1ccccc1 [Example 44, 2-benzyl-N-(3-chloro-2-fluorophenyl)-1-methyl-1H-imidazole-4-carboxamide] | –
48.6 µM | O=C(Nc1cccc(Cl)c1F)c1c[nH]c(Cc2ccccc2)n1 [Example 45, 2-benzyl-N-(3-chloro-2-fluorophenyl)-1H-imidazole-4-carboxamide] | –
2.47 µM | O=C1c2cc(Cc3ccccc3)ccc2CN1c1ccccc1F [Example 48, 6-Benzyl-2-(2-fluorophenyl)isoindolin-1-one] | –
3.68 µM | O=C1c2nc(Cc3ccccc3)ccc2CN1c1ccccc1F [Example 49, 2-Benzyl-6-(2-fluorophenyl)-5,6-dihydro-7H-pyrrolo[3,4-b]pyridin-7-one] | –
0.0839 µM | O=C(Nc1cccc(Cl)c1F)c1ncn(Cc2cncc(F)c2)n1 [Example 103, N-(3-chloro-2-fluorophenyl)-1-((5-fluoropyridin-3-yl)methyl)-1H-1,2,4-triazole-3-carboxamide] | –

SMILES | IC50 [1] | IC50 [2]
O=C(Nc1cccc(Cl)c1F)c1ncn(Cc2ccccc2F)n1 [Example 12, N-(3-chloro-2-fluorophenyl)-1-(2-fluorobenzyl)-1H-1,2,4-triazole-3-carboxamide] | 0.0186 µM | 657 nM
Cc1nc(C(=O)Nc2cccc(Cl)c2F)nn1Cc1ccccc1 [Example 13, 1-benzyl-N-(3-chloro-2-fluorophenyl)-5-methyl-1H-1,2,4-triazole-3-carboxamide] | 0.0419 µM | 1270 nM
Cc1nc(C(=O)Nc2cccc(Cl)c2F)nn1Cc1cccc(C#N)c1 [Example 34, N-(3-chloro-2-fluoro-phenyl)-1-(3-cyano-benzyl)-5-methyl-1H-1,2,4-triazole-3-carboxamide] | 0.472 µM | –
O=C(Nc1ccc(Cl)c(Cl)c1F)c1ncn(Cc2ccccc2)n1 [Example 37, 1-benzyl-N-(3,4-dichloro-2-fluoro-phenyl)-1H-1,2,4-triazole-3-carboxamide] | 1.1 µM | –
O=C(Nc1cc(C(F)(F)F)cc(Cl)c1F)c1ncn(Cc2ccccc2)n1 [Example 38, 1-benzyl-N-(3-chloro-2-fluoro-5-(trifluoro-methyl)phenyl)-1H-1,2,4-triazole-3-carboxamide] | 1.29 µM | –
N#Cc1ccc(NC(=O)c2ncn(Cc3ccccc3)n2)c(F)c1Cl [Example 39, 1-benzyl-N-(3-chloro-4-cyano-2-fluorophenyl)-1H-1,2,4-triazole-3-carboxamide] | 1.41 µM | –
O=C(Nc1ccc(Br)c(Cl)c1F)c1ncn(Cc2ccccc2)n1 [Example 40, 1-benzyl-N-(4-bromo-3-chloro-2-fluoro-phenyl)-1H-1,2,4-triazole-3-carboxamide] | 1.65 µM | –
Cc1cc(NC(=O)c2ncn(Cc3ccccc3)n2)ccc1OC(F)(F)F [Example 53, 1-benzyl-N-(3-methyl-4-(trifluoromethoxy)-phenyl)-1H-1,2,4-triazole-3-carboxamide] | 4.91 µM | –
